Patent US20260365670A1, “EGFR INHIBITORS AND USES THEREOF” (DIZAL (JIANGSU) PHARMACEUTICAL CO., LTD., priority 2022, published 2026)
Like-named read-outs stand apart in the source and are kept apart here.

Tests used:
EGFR[T790M/C797S/L858R] = target: T1, EGFR[T790M/C797S/L858R] (Homo sapiens, UniProt P00533, C797S/L858R/T790M); experiment: Inhibition of EGFR[T790M/C797S/L858R] biochemical enzymatic activity (HTRF); conditions: EGFR T790M-C797S-L858R, 1 mM ATP, 1 h, room temperature, read-out: IC50 (nM) @T790M- C797S - L858R
T1 construct: purchased Carna Bio
How it was run: (§1)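 In a buffer with 5 mM MgCl2, 1 mM MnCl2, 1 mM DTT and 0.01% CHAPS, enzyme turnover of 1 μM biotinylated TK substrate at 1 mM ATP is followed by HTRF after 1 h at room temperature. IC50 is obtained by a four-parameter fit.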

PC-9 = experiment: Cell proliferation assay, PC-9 cells (CellTiter-Glo, 72 hours); type: cell-based; conditions: PC9 cells, CellTiter-Glo, read-out: PC9 GI50
How it was run: (§2)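 GI50 is the concentration giving 50% proliferation inhibition. Growth for this was normalised to a baseline viability reading taken when compound was added, and to DMSO wells. PC-9 (500 cells/well) and mutant-EGFR Ba/F3 (5000 cells/well) are treated after overnight seeding in RPMI1640-based medium.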

EGFR L858R = target: T2, EGFR L858R (Homo sapiens, UniProt P00533, L858R); experiment: Inhibition of EGFR L858R biochemical enzymatic activity (HTRF); conditions: 1 mM ATP, 1 h, room temperature, read-out: IC50 (nM) @L858R
T2 construct: purchased Carna Bio
T2 sequence (P00533 25-1210 L858R): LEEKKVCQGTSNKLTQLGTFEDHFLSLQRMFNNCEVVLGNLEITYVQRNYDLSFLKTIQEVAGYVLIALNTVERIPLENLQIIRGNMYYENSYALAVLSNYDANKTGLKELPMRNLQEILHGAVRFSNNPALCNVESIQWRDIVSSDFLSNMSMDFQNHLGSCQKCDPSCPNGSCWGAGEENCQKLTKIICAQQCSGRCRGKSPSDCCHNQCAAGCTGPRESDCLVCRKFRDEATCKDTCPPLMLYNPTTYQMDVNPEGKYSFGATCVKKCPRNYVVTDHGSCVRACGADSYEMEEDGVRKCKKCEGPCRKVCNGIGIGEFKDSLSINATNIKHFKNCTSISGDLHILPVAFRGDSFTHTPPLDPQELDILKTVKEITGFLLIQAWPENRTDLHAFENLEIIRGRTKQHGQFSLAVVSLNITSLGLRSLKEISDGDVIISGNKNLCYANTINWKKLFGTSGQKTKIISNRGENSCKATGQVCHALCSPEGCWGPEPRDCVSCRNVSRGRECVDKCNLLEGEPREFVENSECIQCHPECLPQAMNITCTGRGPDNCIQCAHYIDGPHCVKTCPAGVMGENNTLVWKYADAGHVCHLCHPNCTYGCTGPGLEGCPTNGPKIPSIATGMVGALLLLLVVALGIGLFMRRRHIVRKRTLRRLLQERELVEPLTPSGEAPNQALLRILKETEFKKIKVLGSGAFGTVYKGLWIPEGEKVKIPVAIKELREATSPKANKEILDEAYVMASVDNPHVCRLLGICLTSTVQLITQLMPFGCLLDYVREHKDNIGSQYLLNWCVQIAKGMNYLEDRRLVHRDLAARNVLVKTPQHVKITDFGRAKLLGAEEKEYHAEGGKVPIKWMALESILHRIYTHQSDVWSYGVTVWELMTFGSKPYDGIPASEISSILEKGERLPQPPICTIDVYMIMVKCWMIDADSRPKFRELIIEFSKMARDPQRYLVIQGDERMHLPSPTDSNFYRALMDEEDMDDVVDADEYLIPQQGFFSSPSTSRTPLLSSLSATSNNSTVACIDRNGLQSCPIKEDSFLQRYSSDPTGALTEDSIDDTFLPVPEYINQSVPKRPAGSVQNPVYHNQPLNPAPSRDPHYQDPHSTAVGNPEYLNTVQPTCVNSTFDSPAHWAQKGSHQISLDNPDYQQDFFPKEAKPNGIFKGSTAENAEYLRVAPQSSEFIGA
How it was run: as §1

EGFR L858R/T790M = target: T3, EGFR L858R/T790M (Homo sapiens, UniProt P00533, L858R/T790M); experiment: Inhibition of EGFR L858R/T790M biochemical enzymatic activity (HTRF); conditions: EGFR L858R-T790M, 1 mM ATP, 1 h, room temperature, read-out: IC50 (nM) @L858R-T790M
T3 construct: purchased Carna Bio
How it was run: as §1

EGFR Exon19Del = target: T4, EGFR Exon19Del (Homo sapiens, UniProt P00533, DEL746-750); experiment: Inhibition of EGFR Exon19Del biochemical enzymatic activity (HTRF); conditions: EGFR Del19, 1 mM ATP, 1 h, room temperature, read-out: IC50 @Del19
T4 construct: purchased Carna Bio
How it was run: as §1

EGFR Exon19Del/T790M = target: T5, EGFR Exon19Del/T790M (Homo sapiens, UniProt P00533, DEL746-750/T790M); experiment: Inhibition of EGFR Exon19Del/T790M biochemical enzymatic activity (HTRF); conditions: EGFR Del19-T790M, 1 mM ATP, 1 h, room temperature, read-out: IC50 (nM) @Del19-T790M
T5 construct: purchased Carna Bio
T5 sequence (P00533 with tags, fused parts or gaps DEL746-750/T790M limits assumed): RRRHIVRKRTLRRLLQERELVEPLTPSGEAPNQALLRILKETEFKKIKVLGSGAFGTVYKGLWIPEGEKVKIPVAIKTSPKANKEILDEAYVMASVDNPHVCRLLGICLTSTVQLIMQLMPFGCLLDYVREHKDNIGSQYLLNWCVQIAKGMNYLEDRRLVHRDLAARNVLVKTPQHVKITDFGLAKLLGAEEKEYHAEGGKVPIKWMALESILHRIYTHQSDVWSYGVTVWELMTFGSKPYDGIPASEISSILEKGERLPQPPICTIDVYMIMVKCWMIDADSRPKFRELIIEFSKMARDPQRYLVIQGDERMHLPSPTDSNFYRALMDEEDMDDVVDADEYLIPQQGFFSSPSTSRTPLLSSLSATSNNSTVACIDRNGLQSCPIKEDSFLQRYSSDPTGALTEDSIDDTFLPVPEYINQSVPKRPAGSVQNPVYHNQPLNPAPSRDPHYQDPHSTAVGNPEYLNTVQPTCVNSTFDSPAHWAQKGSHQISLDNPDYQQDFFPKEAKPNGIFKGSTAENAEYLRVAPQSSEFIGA
How it was run: as §1

[1] = target: T6, EGFR[T790M/C797S/d746-750] (Homo sapiens, UniProt P00533, C797S/DEL746-750/T790M); experiment: Inhibition of EGFR[T790M/C797S/d746-750] biochemical enzymatic activity (HTRF); conditions: EGFR T790M-C797S-Del19, 1 mM ATP, 1 h, room temperature, read-out: IC50 (nM) @T790M - C797S - Del19
T6 construct: purchased Carna Bio
How it was run: as §1

EGFR (C797S L858R) = target: T7, EGFR (C797S L858R) (Homo sapiens, UniProt P00533, C797S/L858R); experiment: Inhibition of EGFR (C797S L858R) biochemical enzymatic activity (HTRF); conditions: EGFR L858-C797S, 1 mM ATP, 1 h, room temperature, read-out: IC50 (nM) @L858-C797S
T7 construct: purchased signalchem
T7 sequence (P00533 25-1210 C797S/L858R): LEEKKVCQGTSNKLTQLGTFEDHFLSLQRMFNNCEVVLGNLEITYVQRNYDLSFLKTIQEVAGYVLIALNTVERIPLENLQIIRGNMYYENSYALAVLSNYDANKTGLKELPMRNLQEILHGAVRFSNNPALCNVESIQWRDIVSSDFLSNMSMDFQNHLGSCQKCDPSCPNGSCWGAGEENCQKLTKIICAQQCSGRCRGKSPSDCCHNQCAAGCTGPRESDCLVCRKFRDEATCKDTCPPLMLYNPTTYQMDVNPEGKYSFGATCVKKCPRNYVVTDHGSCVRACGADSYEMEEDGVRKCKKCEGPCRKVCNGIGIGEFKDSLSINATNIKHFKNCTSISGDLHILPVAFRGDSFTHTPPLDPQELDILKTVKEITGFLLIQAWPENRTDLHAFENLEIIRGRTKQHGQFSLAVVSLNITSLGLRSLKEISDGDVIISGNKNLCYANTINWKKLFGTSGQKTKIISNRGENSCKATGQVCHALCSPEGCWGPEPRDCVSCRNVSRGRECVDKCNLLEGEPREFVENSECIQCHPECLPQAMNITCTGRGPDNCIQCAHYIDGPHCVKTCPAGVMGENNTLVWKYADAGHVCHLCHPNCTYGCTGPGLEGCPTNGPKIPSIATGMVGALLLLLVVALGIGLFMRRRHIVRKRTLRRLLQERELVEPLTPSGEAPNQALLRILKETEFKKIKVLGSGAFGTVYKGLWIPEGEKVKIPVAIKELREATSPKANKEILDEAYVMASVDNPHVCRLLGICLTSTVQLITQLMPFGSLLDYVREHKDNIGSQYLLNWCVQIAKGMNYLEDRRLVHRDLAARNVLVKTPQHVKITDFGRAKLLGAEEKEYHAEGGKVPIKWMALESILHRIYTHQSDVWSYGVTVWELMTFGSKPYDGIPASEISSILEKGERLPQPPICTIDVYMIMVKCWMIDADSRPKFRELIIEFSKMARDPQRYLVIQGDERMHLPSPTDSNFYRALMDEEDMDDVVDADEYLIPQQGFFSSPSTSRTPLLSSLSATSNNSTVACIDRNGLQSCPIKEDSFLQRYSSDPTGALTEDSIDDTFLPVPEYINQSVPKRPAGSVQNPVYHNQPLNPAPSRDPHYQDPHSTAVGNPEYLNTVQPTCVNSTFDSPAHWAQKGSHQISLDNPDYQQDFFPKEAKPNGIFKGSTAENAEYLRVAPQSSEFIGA
How it was run: as §1

[2] = tested on: Ba/F3 cells expressing EGFR mutations; experiment: Cell proliferation assay, Ba/F3 cells expressing EGFR mutations (CellTiter-Glo, 72 hours); type: cell-based; conditions: CellTiter-Glo
How it was run: as §2

EGFR wild type = target: T8, EGFR wild type (Homo sapiens, UniProt P00533); experiment: Inhibition of EGFR wild type biochemical enzymatic activity (HTRF); conditions: EGFR WT, 1 mM ATP, 1 h, room temperature, read-out: IC50 (nM) @WT
T8 construct: purchased Carna Bio
T8 sequence (P00533 25-1210): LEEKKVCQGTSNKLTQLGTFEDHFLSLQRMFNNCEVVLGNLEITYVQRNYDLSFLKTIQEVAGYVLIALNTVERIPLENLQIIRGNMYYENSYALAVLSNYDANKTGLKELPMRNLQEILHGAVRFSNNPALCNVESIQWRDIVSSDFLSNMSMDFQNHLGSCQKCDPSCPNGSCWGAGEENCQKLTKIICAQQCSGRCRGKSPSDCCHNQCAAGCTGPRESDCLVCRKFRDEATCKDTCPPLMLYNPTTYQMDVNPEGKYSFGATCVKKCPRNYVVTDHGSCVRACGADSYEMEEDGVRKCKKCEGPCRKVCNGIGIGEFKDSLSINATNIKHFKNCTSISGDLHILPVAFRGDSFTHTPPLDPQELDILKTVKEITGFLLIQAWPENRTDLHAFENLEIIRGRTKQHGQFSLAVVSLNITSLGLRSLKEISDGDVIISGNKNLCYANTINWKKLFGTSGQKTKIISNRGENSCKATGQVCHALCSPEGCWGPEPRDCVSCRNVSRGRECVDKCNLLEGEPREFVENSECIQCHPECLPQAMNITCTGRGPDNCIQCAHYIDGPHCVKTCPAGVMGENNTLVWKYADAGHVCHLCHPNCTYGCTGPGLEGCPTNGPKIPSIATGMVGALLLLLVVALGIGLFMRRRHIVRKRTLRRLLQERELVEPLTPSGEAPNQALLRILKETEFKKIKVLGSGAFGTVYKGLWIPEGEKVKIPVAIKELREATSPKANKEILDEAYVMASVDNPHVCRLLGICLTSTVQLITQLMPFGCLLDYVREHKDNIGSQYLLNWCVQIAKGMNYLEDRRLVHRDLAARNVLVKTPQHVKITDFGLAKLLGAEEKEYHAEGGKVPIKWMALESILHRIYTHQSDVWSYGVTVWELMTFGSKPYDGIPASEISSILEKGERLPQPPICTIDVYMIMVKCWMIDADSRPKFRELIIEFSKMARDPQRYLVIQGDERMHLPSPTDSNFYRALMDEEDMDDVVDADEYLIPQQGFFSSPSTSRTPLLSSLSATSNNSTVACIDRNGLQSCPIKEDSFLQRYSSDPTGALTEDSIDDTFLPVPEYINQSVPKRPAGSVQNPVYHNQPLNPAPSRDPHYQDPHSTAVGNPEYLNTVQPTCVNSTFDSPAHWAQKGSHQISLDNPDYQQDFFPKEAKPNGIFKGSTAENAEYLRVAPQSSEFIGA
How it was run: as §1

A-431 = experiment: Cell proliferation GI50, A-431 cells (Table 6); type: cell-based
EGFR (d746-750 C797S) = target: T9, EGFR (d746-750 C797S) (Homo sapiens, UniProt P00533, C797S/DEL746-750); experiment: Inhibition of EGFR (d746-750 C797S) biochemical enzymatic activity (HTRF); conditions: EGFR Del19-C797S, 1 mM ATP, 1 h, room temperature, read-out: IC50 (nM) @Del19-C797S
T9 construct: purchased signalchem
T9 sequence (P00533 with tags, fused parts or gaps DEL746-750/C797S limits assumed): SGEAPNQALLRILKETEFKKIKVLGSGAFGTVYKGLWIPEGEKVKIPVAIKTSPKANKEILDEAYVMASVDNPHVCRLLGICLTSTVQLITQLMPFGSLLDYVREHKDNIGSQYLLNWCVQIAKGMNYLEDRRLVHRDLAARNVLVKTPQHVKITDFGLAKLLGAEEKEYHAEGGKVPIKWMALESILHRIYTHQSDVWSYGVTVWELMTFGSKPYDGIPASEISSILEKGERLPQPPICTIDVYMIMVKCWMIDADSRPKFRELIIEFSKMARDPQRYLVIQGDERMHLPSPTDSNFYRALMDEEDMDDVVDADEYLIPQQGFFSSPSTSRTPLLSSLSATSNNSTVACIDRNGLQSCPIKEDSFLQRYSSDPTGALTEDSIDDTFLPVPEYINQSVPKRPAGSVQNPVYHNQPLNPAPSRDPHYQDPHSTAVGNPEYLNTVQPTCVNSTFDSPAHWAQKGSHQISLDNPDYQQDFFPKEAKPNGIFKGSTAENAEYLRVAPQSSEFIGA
How it was run: as §1

[3] = BaF3 cells, EGFR DEL19-C797S, read-out: DEL19-C797S/BaF3 GI50
[4] = BaF3 cells, EGFR DEL19-T790-C797S, read-out: DEL19-T790-C797S/BaF3 GI50
[5] = BaF3 cells, EGFR L858R, read-out: L858R/BaF3 GI50
[6] = BaF3 cells, EGFR L858R-C797S, read-out: L858R-C797S/BaF3 GI50
[7] = BaF3 cells, EGFR L858R-T790-C797S, read-out: L858R-T790-C797S/BaF3 GI50
[8] = BaF3 cells, EGFR L858R-T790M, read-out: L858R-T790M/BaF3 GI50
[9] = EGFR DEL19-T790M, read-out: DEL19-T790M GI50

SMILES: CN1CCC2(CC1)CCN(c1ccc3nc4n(c3c1)C13CCC(CN(CCOc5c(cnn5C)-c5cc(cn(C)c5=O)C(=O)N4)C1)C3)C2 (single isomer, unassigned) [Example A88A]
- IC50 (EGFR[T790M/C797S/L858R]): > 5000 nM
- GI50 (PC-9): 611 nM
- IC50 (EGFR L858R): > 5000 nM
- IC50 (EGFR L858R/T790M): > 5000 nM
- IC50 (EGFR Exon19Del): 477 nM
- IC50 (EGFR Exon19Del/T790M): > 5000 nM
- IC50 [1]: > 5000 nM
- IC50 (EGFR (C797S L858R)): > 5000 nM
- GI50 [2, 3]: 57 nM
- GI50 [2, 4]: 159 nM
- GI50 [2, 5]: 119 nM
- GI50 [2, 6]: 100 nM
- GI50 [2, 7]: 252 nM
- GI50 [2, 8]: 361 nM
- GI50 [2, 9]: 163 nM
- IC50 (EGFR wild type): > 5000 nM
- GI50 (A-431; A-431 cells): 6260 nM
- IC50 (EGFR (d746-750 C797S)): 1160 nM

SMILES: CN1CCC2(CC1)CCN(c1ccc3nc4n(c3c1)C13CCC(CN(CCOc5c(cnn5C)-c5cc(cn(C)c5=O)C(=O)N4)C1)C3)C2 (single isomer, unassigned) [Example A88B]
- IC50 (EGFR[T790M/C797S/L858R]): 2.8 nM
- GI50 (PC-9): 21 nM
- IC50 (EGFR L858R): 4.8 nM
- IC50 (EGFR L858R/T790M): 4.9 nM
- IC50 (EGFR Exon19Del): 2.5 nM
- IC50 (EGFR Exon19Del/T790M): 4.9 nM
- IC50 [1]: 4.6 nM
- IC50 (EGFR (C797S L858R)): 4.2 nM
- GI50 [2, 3]: 0.63 nM
- GI50 [2, 4]: 1 nM
- GI50 [2, 5]: 0.84 nM
- GI50 [2, 6]: 3.4 nM
- GI50 [2, 7]: 1.7 nM
- GI50 [2, 8]: 8.8 nM
- GI50 [2, 9]: 1 nM
- IC50 (EGFR wild type): 12 nM
- GI50 (A-431; A-431 cells): 2200 nM
- IC50 (EGFR (d746-750 C797S)): 2.2 nM

SMILES: CN(C)CCCN(C)c1ccc2nc3n(c2c1)C12CCC(CN(CCOc4c(cnn4C)-c4cc(cn(C)c4=O)C(=O)N3)C1)C2 (single isomer, unassigned) [Example A89A]
- IC50 (EGFR[T790M/C797S/L858R]): > 5000 nM
- GI50 (PC-9): 791 nM
- IC50 (EGFR L858R): 3600 nM
- IC50 (EGFR L858R/T790M): > 5000 nM
- IC50 (EGFR Exon19Del): 250 nM
- IC50 (EGFR Exon19Del/T790M): > 5000 nM
- IC50 [1]: > 5000 nM
- IC50 (EGFR (C797S L858R)): > 5000 nM
- GI50 [2, 3]: 103 nM
- GI50 [2, 4]: 178 nM
- GI50 [2, 5]: 135 nM
- GI50 [2, 6]: 165 nM
- GI50 [2, 7]: 280 nM
- GI50 [2, 8]: 367 nM
- GI50 [2, 9]: 115 nM
- IC50 (EGFR wild type): > 5000 nM
- GI50 (A-431; A-431 cells): 6390 nM
- IC50 (EGFR (d746-750 C797S)): 573 nM

SMILES: CN(C)CCCN(C)c1ccc2nc3n(c2c1)C12CCC(CN(CCOc4c(cnn4C)-c4cc(cn(C)c4=O)C(=O)N3)C1)C2 (single isomer, unassigned) [Example A89B]
- IC50 (EGFR[T790M/C797S/L858R]): 5.4 nM
- GI50 (PC-9): 28 nM
- IC50 (EGFR L858R): 16 nM
- IC50 (EGFR L858R/T790M): 7.4 nM
- IC50 (EGFR Exon19Del): 1.9 nM
- IC50 (EGFR Exon19Del/T790M): 3.8 nM
- IC50 [1]: 4 nM
- IC50 (EGFR (C797S L858R)): 11 nM
- GI50 [2, 3]: 0.57 nM
- GI50 [2, 4]: 3.2 nM
- GI50 [2, 5]: 2.2 nM
- GI50 [2, 6]: 3.8 nM
- GI50 [2, 7]: 4.1 nM
- GI50 [2, 8]: 9.2 nM
- GI50 [2, 9]: 2.6 nM
- IC50 (EGFR wild type): 134 nM
- GI50 (A-431; A-431 cells): 1700 nM
- IC50 (EGFR (d746-750 C797S)): 2.2 nM

SMILES: COCCN(C)c1ccc2nc3n(c2c1)C12CCC(CN(CCOc4c(cnn4C)-c4cc(cn(C)c4=O)C(=O)N3)C1)C2 (single isomer, unassigned) [Example A90A]
- IC50 (EGFR[T790M/C797S/L858R]): > 5000 nM
- GI50 (PC-9): 2100 nM
- IC50 (EGFR L858R): > 5000 nM
- IC50 (EGFR L858R/T790M): > 5000 nM
- IC50 (EGFR Exon19Del): 1710 nM
- IC50 (EGFR Exon19Del/T790M): > 5000 nM
- IC50 [1]: > 5000 nM
- IC50 (EGFR (C797S L858R)): > 5000 nM
- GI50 [2, 3]: 128 nM
- GI50 [2, 4]: 393 nM
- GI50 [2, 5]: 540 nM
- GI50 [2, 6]: 249 nM
- GI50 [2, 7]: 721 nM
- GI50 [2, 8]: 977 nM
- GI50 [2, 9]: 321 nM
- IC50 (EGFR wild type): > 5000 nM
- GI50 (A-431; Homo sapiens, A-431, A-431 cells): 4270 nM
- IC50 (EGFR (d746-750 C797S)): 749 nM
